From PubChem BioAssay (NCI)
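1) Cells in 96-well plates. 2) Compound, 48 h, 5 concentrations. 3) Linear interpolation between surrounding doses. 4) Unreached endpoint = highest concentration. Here, GI50 denotes the concentration required for 50% inhibition of growth. Definition used: TGI = concentration required for complete inhibition of growth.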

What was measured:
Experiment in all cases: DTP human tumour cell line panel, 48 h
[1] = system: HT29 colon
[2] = system: MALME-3M melanoma
[3] = system: NCI-H460 lung
[4] = system: SF-539 CNS
[5] = system: SK-MEL-28 melanoma
[6] = system: UACC-62 melanoma
[7] = system: UO-31 renal
[8] = system: COLO 205 colon
[9] = system: ACHN renal
[10] = system: TK-10 renal
[11] = system: MDA-MB-231 breast
[12] = system: HS 578T breast

SMILES | TGI [1] [µM] | TGI [2] [µM] | TGI [3] [µM] | TGI [4] [µM] | TGI [5] [µM] | TGI [6] [µM] | TGI [7] [µM] | GI50 [8] [µM] | TGI [8] [µM] | GI50 [1] [µM] | GI50 [2] [µM] | GI50 [3] [µM] | GI50 [4] [µM] | GI50 [5] [µM] | GI50 [6] [µM] | GI50 [7] [µM] | TGI [9] [µM] | TGI [10] [µM] | TGI [11] [µM] | TGI [12] [µM]
CCCCCCc1cn([C@H]2C[C@H](O)[C@@H](CO)O2)c(=O)[nH]c1=O | > 100 | > 100 | > 100 | > 100 | > 100 | > 31.6 | > 100 | – | – | – | – | – | – | – | – | – | – | – | – | –
NC1CCCCC1N.O=S(=O)([O-])CCCN1CCN(CCO)CC1.O=S(=O)([O-])CCCN1CCN(CCO)CC1.[Pt+4] | > 22.1 | 28.3 | > 46 | > 100 | 29.8 | 33.7 | > 100 | 1.82 | 19.6 | 0.945 | 3.08 | 1.15 | 10.7 | 8.22 | 6.91 | 13.5 | – | – | – | –
c1ccc(-c2[nH]c(-c3ccccc3)c(-c3cnccn3)c2-c2cnccn2)cc1 | > 100 | > 100 | > 100 | > 100 | > 100 | > 100 | > 100 | – | > 100 | – | – | – | – | – | – | – | > 100 | > 100 | – | –
CC(=O)O[C@H]1C(=O)[C@@]2(C)C(C(OC(=O)c3ccccc3)[C@]3(O)CC(OC(=O)C(O)C(NC(=O)c4ccccc4)c4ccc(C)cc4)C(C)=C1C3(C)C)[C@]1(OC(C)=O)CO[C@@H]1C[C@@H]2O (stereo partly specified) | 0.0861 | 10.4 | > 25 | 0.0652 | – | 6.51 | 11.5 | – | 0.407 | – | – | – | – | – | – | – | > 25 | > 25 | – | –
CCOC(=O)C1=C(C)N(c2ccc(C)cc2)C2(O)C=CC(=O)C3=C(O)c4ccccc4C(=O)C312 (stereo unspecified) | 65.9 | 43.1 | > 100 | 44.1 | 60.2 | > 100 | 40 | – | > 100 | – | – | – | – | – | – | – | 50.1 | > 100 | > 100 | –
O=C(NCCCCNCCCNC(=O)OCc1ccccc1)OCc1ccccc1 | 37.7 | – | 69 | 43.1 | 40 | 37.1 | 93.1 | – | 33.8 | – | – | – | – | – | – | – | > 100 | > 100 | – | 88.8
CCOC(=O)c1c(-c2ccc(OC)c(O)c2)c(C#N)c(=S)n(C2OC(CO)C(O)C(O)C2O)c1-c1ccccc1 (stereo unspecified) | > 100 | – | > 100 | – | > 100 | > 100 | > 100 | – | > 100 | – | – | – | – | – | – | – | > 100 | – | – | > 100
CC(C)c1nccn1Cc1ccc(Cl)cc1Cl | > 100 | > 100 | > 100 | > 100 | > 100 | > 100 | > 100 | – | > 100 | – | – | – | – | – | – | – | > 100 | > 100 | > 100 | –
CC1OC=CC(=O)C1O (stereo unspecified) | > 100 | > 100 | > 100 | > 100 | > 100 | > 100 | > 100 | – | – | – | – | – | – | – | – | – | > 100 | > 100 | – | –
CN(CCN(C)C(=O)CCn1ccc(=O)[nH]c1=O)C(=O)CCn1ccc(=O)[nH]c1=O | > 100 | > 100 | > 100 | > 100 | > 100 | > 100 | > 100 | – | > 100 | – | – | – | – | – | – | – | > 100 | > 100 | – | –
CCOC(=O)N1C(=S)C(C(=O)OC)(C(=O)OC)N=C1C | – | – | > 100 | – | > 100 | > 100 | > 100 | – | > 100 | – | – | – | – | – | – | – | > 100 | > 100 | – | –
CC1(C)N=C(N)N=C(N)N1c1ccc(OCCCOc2ccccc2)c(Cl)c1 | 10.5 | 14.5 | 12.4 | 15.5 | 9.16 | 18.3 | > 23.8 | – | 15.1 | – | – | – | – | – | – | – | – | – | – | –
COc1ccc(N2C(=O)C(N3C(=O)C=CC3=O)C2C=O)cc1 (stereo unspecified) | > 100 | > 100 | > 100 | > 100 | > 100 | > 100 | > 100 | – | > 100 | – | – | – | – | – | – | – | > 100 | > 100 | – | –
C/C(=C\c1ccccc1)C(=O)NCc1ccc(C(=O)NCCc2c[nH]c3ccccc23)cc1 | > 100 | > 100 | > 100 | > 100 | > 100 | 53.7 | > 100 | – | > 100 | – | – | – | – | – | – | – | > 100 | > 100 | > 100 | –
O=C1OC(c2ccccc2)=N/C1=C/N1CCCC1C(=O)O (stereo unspecified) | > 100 | > 100 | > 100 | > 100 | > 100 | > 100 | > 100 | – | > 100 | – | – | – | – | – | – | – | > 100 | > 100 | – | –
CCOC(=O)CCC(C(=O)OCC)n1nnc2cc(Nc3c(C)[n+]([O-])c4ccc(Cl)cc4[n+]3[O-])ccc21 (stereo unspecified) | > 100 | > 100 | > 100 | > 100 | – | > 100 | > 100 | – | > 100 | – | – | – | – | – | – | – | > 100 | > 100 | – | > 100

SMILES | TGI [1] [µM] | TGI [2] [µM] | TGI [3] [µM] | TGI [4] [µM] | TGI [5] [µM] | TGI [6] [µM] | TGI [7] [µM] | GI50 [8] [µM] | TGI [8] [µM] | GI50 [1] [µM] | GI50 [2] [µM] | GI50 [3] [µM] | GI50 [4] [µM] | GI50 [5] [µM] | GI50 [6] [µM] | GI50 [7] [µM] | TGI [9] [µM] | TGI [10] [µM] | TGI [11] [µM] | TGI [12] [µM]
CC(C)CC(NC(=O)C(COc1ccc([N+](=O)[O-])cc1)Cc1ccccc1)C(=O)Nc1ccccc1 (stereo unspecified) | – | 18 | 13.2 | 18.9 | – | 30.9 | 24.5 | – | > 100 | – | – | – | – | – | – | – | > 100 | 50.3 | 80.3 | –
COc1cccc(C2CC(=O)c3cccn32)c1 (stereo unspecified) | > 100 | – | – | > 100 | > 100 | > 100 | > 100 | – | > 100 | – | – | – | – | – | – | – | > 100 | > 100 | > 100 | > 100
CC(=O)[C@H]1CCC2[C@@H]3CC=C4C(O)C(OS(=O)(=O)O)CC[C@]4(C)C3CC[C@@]21C (stereo partly specified) | > 100 | > 100 | > 100 | > 100 | > 100 | > 100 | > 100 | – | > 100 | – | – | – | – | – | – | – | – | – | – | –
C=C(C(=O)OC)[C@H]1CC/C(C)=C/CC/C(C)=C/CC[C@@]2(C)O[C@@H]2C1 | 34.4 | 63.3 | – | 32.2 | > 100 | 26 | 55 | – | 28.6 | – | – | – | – | – | – | – | 34.5 | 59 | 33.6 | –
CCCCCCCCCCCCCCCCNc1ccn(C2CC(OP(=O)(O)OCC3OC(n4cc(CC)c(=O)[nH]c4=O)CC3O)C(CO)O2)c(=O)n1 (stereo unspecified) | 46.1 | – | – | 34.4 | 68.3 | 35.8 | 53 | – | 92.4 | – | – | – | – | – | – | – | > 100 | > 100 | 68.3 | 67.1
c1ccc(COc2cccc3cccnc23)cc1 | > 100 | > 100 | > 100 | > 100 | > 100 | > 100 | > 100 | – | > 100 | – | – | – | – | – | – | – | > 100 | > 100 | – | –
O=C(NC/C=C/Br)NC1CCNc2ccccc21 (stereo unspecified) | 31.2 | 77.9 | > 100 | 45.8 | > 100 | 58.7 | 62.6 | – | 37.7 | – | – | – | – | – | – | – | > 100 | > 100 | > 100 | –
COc1cc(S(=O)(=O)N/N=C/c2cc(Br)c(O)c(OC)c2)c(OC)cc1NC(C)=O | > 100 | – | – | 41.8 | > 100 | – | > 100 | – | 51.3 | – | – | – | – | – | – | – | > 100 | > 100 | > 100 | –
c1ccc(CNc2ncnc3n[nH]nc23)cc1 | > 100 | > 100 | – | > 100 | > 100 | > 100 | > 100 | – | > 100 | – | – | – | – | – | – | – | > 100 | > 100 | > 100 | –
C=C1CC(OC)(C(O)C(=O)N[C@H]2OCO[C@H]3C2O[C@H](C[C@H](O)COC)C(C)(C)C3OC)O[C@H](C)[C@@H]1C (stereo partly specified) | > 0.00772 | – | > 0.00772 | > 0.00772 | > 0.00772 | > 0.00772 | > 0.00772 | – | > 0.00772 | – | – | – | – | – | – | – | – | – | – | –
CC1(C)O[C@@H](CP(c2cccc3ccccc23)c2cccc3ccccc23)[C@H](CP(c2cccc3ccccc23)c2cccc3ccccc23)O1 | > 100 | – | > 100 | – | > 100 | > 100 | > 100 | – | > 100 | – | – | – | – | – | – | – | > 100 | > 100 | > 100 | –
COC(=O)C(C(=O)OC)C1CC(=O)c2c(Br)sc(Br)c21 (stereo unspecified) | 32.9 | 40 | 40.4 | 42.6 | 34.2 | 29.6 | 29.5 | – | 28.5 | – | – | – | – | – | – | – | 26.6 | 86.7 | – | 85.7
COc1cc(C2(C)SCCCS2)c(I)c(OC)c1OC | > 100 | > 100 | > 100 | > 100 | > 100 | > 100 | > 100 | – | > 100 | – | – | – | – | – | – | – | > 100 | > 100 | – | –
Oc1ccc2ccccc2c1OCc1nnc(CCCCCCCCc2nnc(COc3c(O)ccc4ccccc34)o2)o1 | > 100 | > 100 | > 100 | – | > 100 | > 100 | > 100 | – | > 100 | – | – | – | – | – | – | – | > 100 | > 100 | > 100 | –
O=c1c(-c2ccc(O)cc2)coc2cc(O)cc(O)c12 | > 100 | > 100 | > 100 | > 100 | > 100 | > 100 | > 100 | – | > 100 | – | – | – | – | – | – | – | > 100 | > 100 | – | > 100
